# Values of other authors, collected in US10631556B2, “Method for conducing concentrated cannabis oil to be stable, emulsifiable and flavorless for use in hot beverages and resulting powderized cannabis oil” (Pivot Naturals, LLC., priority 2015, dated 2020).
# How the values were obtained:
# [1] = test system: Mice; settings: odor inhaled from ambient air for 1 hour
# [2] = mice, odor inhaled from ambient air for 1 hour
# [3] = inhalation
# [4] = test system: Mice
# [5] = target: CYP 2C9 (Homo sapiens, UniProt P11712); settings: anecdotal online article
# Chain of CYP 2C9 (P11712 whole entry): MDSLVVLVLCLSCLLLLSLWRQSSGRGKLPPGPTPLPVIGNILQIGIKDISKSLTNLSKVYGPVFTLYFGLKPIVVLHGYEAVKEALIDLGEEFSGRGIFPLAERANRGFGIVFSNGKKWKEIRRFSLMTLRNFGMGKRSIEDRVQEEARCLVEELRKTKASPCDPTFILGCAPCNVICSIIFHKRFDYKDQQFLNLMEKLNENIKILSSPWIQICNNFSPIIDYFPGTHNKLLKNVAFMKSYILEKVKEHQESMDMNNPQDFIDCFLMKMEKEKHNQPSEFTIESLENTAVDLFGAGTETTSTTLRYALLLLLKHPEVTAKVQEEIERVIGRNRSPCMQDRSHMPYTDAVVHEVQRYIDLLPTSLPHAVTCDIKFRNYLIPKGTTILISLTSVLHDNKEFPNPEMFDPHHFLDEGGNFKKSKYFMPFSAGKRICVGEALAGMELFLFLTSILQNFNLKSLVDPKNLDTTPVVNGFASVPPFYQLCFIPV
compound,measurement,setting,value
C=CC(C)(O)CCC=C(C)C (centres unmarked) [linalool],reduction in motility,[1],73%
same,serum concentration,[2],4.22 ng/mL
C=C(C)[C@H]1CC=C(C)CC1 [Limonene],human pulmonary uptake,[3],70%
"CCCCCc1cc(O)c2c(c1)OC(C)(C)[C@@H]1CCC(C)=C[C@@H]21 [THC, tetrahydrocannabinol]",solubility in most organic solvents,"organic solvents, specifically lipids and alcohols",good
same,solubility in water,water,very low
pinene,increase in mouse activity,[1],13.77%
same,serum concentration,[2],trace
same,human pulmonary uptake,[3],60%
C=CC(=C)CCC=C(C)C [myrcene],muscle relaxant effect,[4],acted as a muscle relaxant
same,barbiturate sleep time,[4]; high doses,potentiated barbiturate sleep time
O=C(/C=C/C=C/c1ccc2c(c1)OCO2)N1CCCCC1 [Piperine],inhibition of CYP 2C9,[5],strongly
